For assay [1], the system named is 786-0 cells. Put plainly: Apoptosis in 786-O cells. The assay is classed as cell-based, human.
Description: Cell viability was determined by trypan blue exclusion. After various treatments, cells were harvested, washed, and treated with trypan blue at a concentration of 0.4% w/v. After 10 min, trypan blue uptake (dead cells) was determined by counting on a hemocytometer. […] The effect of honokiol on cell viability and cleavage of the caspase 3 substrate poly-(ADP-ribose) polymerase (“PARP”)—an indicator of apoptotic cell death—was examined in the MDA-MB-231 and 786-0 cells. The effect of honokiol on cell viability and PARP cleavage in 0.5% serum was examined after 4 hr and 24 hr honokiol treatment and in 10% serum after 24 hr honokiol treatment in the MDA-MB-231 cells.
The subject of assay [2] is PLD activity in MDA-MB-231 cells. Briefly: In vivo PLD activity (transphosphatidylation, PBt) in MDA-MB-231 cells. The assay is classed as cell-based, human. Conditions: honokiol 20 μM, 4 hr. How it is done:
In FIG. 13A, MDA-MB-231 cells were plated as in FIGS. 12A-C and then shifted to either 10% serum or 0.5% serum overnight as indicated. Honokiol (20 μM) or control ethanol was then added for 4 hr as indicated, at which time the cells were harvested and the levels of PBt were determined as in FIGS. 12A-C. The experiment shown is representative of at least three independent experiments. In FIG. 13B, the effect of honokiol on the activity of PLD isoforms was measured using exogenous substrate assay as described previously (Henage et al., “Kinetic Analysis of a Mammalian Phospholipase D: Allosteric Modulation by Monomeric GTPases, Protein Kinase C, and Polyphosphoinositides,” J. Biol. Chem. 281:3408-17 (2006), which is hereby incorporated by reference in its entirety). […] The amount of background was determined and subtracted using a bovine serum albumin standard. […]
For in vivo PLD activity, cells were plated in 60 mm culture dishes in DMEM with 10% serum at a density that would allow them to grow to about 80% confluence after 2 days, then cells were shifted to DMEM containing 0.5% or 10% serum as indicated in the figure legends overnight. […] Briefly, PLD activity was measured by the release of [methyl-^3H] choline from [choline-methyl-^3H]dipalmitoyl-phosphatidylcholine. […]

Assay [3] relates to B-cell chronic lymphocytic leukemia cells. The conditions noted are these: Battle et al. 2005; cited from earlier work.
Assay [4] has as its system S6K and 4E-BP1. Briefly: Phosphorylation of mTOR substrates S6K and 4E-BP1 in MDA-MB-231 cells (Western blot). The assay is classed as cell-based, human. Conditions: honokiol 20 μM, 0.5% serum. As for the experimental part:
In FIG. 15A, MDA-MB-231 cells were plated in DMEM with 10% serum. 48 hr later the cells were shifted to 0.5% for 16 hr. Honokiol (20 μM) or control ethanol was then added for the indicated times. The cells were then harvested and analyzed for levels of S6K, phosphorylated S6K (P-S6K), 4E-BP1, and P-4E-BP1 by Western blot analysis as described previously (Zheng et al., “Phospholipase D Couples Survival and Migration Signals in Response to Stress in Human Breast Cancer Cells,” J. Biol. Chem. 281:15862-8 (2006), which is hereby incorporated by reference in its entirety). In FIG. 15B, 786-O cells were plated and then shifted to media containing 0.5% serum 24 hr later. 18 hr later, the cells were treated with 1-Bt0H (0.8%), honokiol (Hon) (20 μM), and t-BtOH (0.8%) as indicated. Cell lysates were prepared 4 hr later and examined for HIF2α and actin expression by Western lot analysis. The experiment shown is representative of two independent experiments.
Extraction of proteins from cultured cells and Western blot analysis of extracted proteins was performed using the ECL system (Amersham) as described previously (Chen et al., “Alternative Phospholipase D/mTOR Survival Signal in Human Breast Cancer Cells,” Oncogene 24:672-9 (2005), which is hereby incorporated by reference in its entirety). […]

The values that follow come from patent US20120301895A1, “METHODS OF MODULATING BINDING OF SON OF SEVENLESS TO PHOSPHATIDIC ACID AND IDENTIFYING COMPOUNDS THAT MODULATE SUCH BINDING” (THE RESEARCH FOUNDATION OF STATE UNIVERSITY OF NEW YORK, priority 2007, published 2012).

For the compound `C=CCc1ccc(O)c(-c2ccc(O)c(CC=C)c2)c1` [honokiol, Honokiol], in assay [1], the apoptosis result is recorded as “induced apoptosis”. For the same compound, the “PLD activity in cells in 0.5% serum (stress-induced)” value in assay [2] (0.5% serum) is on record as “completely suppressed”. Further, the “basal PLD activity in cells maintained in 10% serum” value in assay [2] (10% serum) is given as “little effect”. In addition, in assay [3], the “apoptosis in B-CLL cells” value was “induce caspase-dependent apoptosis”. In assay [4], the “phosphorylation of 4E-BP1” value was “suppressed” and the “phosphorylation of S6K” value is “suppressed”.
